Results published in PubChem BioAssay (NCI).
“And” between values parts separate entries of the source, which are not always exact repeats. Equal entries are not always repeated.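 Step 1: Grow cells in 96-well plates. Step 2: Expose to compound for 48 hours at 5 concentrations. Step 3: Interpolate endpoints linearly; if unreached, use highest concentration. GI50 marks 50% less growth. Definition used: TGI = concentration required for complete inhibition of growth.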

Key:
Assay in all cases: NCI tumour cell line growth inhibition, 48 h
TK-10 renal = test system: TK-10 renal
SR leukemia = test system: SR leukemia
UACC-62 melanoma = test system: UACC-62 melanoma
SK-MEL-28 melanoma = test system: SK-MEL-28 melanoma
SF-268 CNS = test system: SF-268 CNS
HS 578T breast = test system: HS 578T breast
BT-549 breast = test system: BT-549 breast
SK-OV-3 ovarian = test system: SK-OV-3 ovarian
T-47D breast = test system: T-47D breast
UACC-257 melanoma = test system: UACC-257 melanoma

Row | SMILES | GI50 (TK-10 renal) | TGI (TK-10 renal) | GI50 (SR leukemia) | TGI (SR leukemia) | GI50 (UACC-62 melanoma) | TGI (UACC-62 melanoma) | GI50 (SK-MEL-28 melanoma) | TGI (SK-MEL-28 melanoma) | GI50 (SF-268 CNS) | TGI (SF-268 CNS) | GI50 (HS 578T breast) | TGI (HS 578T breast) | GI50 (BT-549 breast) | TGI (BT-549 breast) | GI50 (SK-OV-3 ovarian) | GI50 (T-47D breast) | TGI (T-47D breast) | GI50 (UACC-257 melanoma) | TGI (UACC-257 melanoma) | TGI (SK-OV-3 ovarian)
1 | O=C(Nc1ccc(Cl)cc1F)c1cc(Br)ccc1O | 4.15 µM | > 53.1 µM | 0.7 µM | > 23 µM | 0.305 µM | 1.26 µM | 0.563 µM | 3.19 µM | 0.745 µM | 9.66 µM | 0.521 µM | 4.08 µM | 0.685 µM | 3.01 µM | 0.763 µM | 0.56 µM | 4.46 µM | 0.705 µM | 3.29 µM | –
2 | COc1ccc(-n2cc(-c3ccc(Cl)c(Cl)c3)nc2SCc2cccc(C#N)c2)cc1 | 44.6 µM | > 100 µM | > 100 µM | > 100 µM | 19.1 µM | > 100 µM | 20.2 µM | > 100 µM | 37 µM | > 100 µM | 18.4 µM | > 100 µM | 21.4 µM | > 100 µM | 26.2 µM | 5.33 µM | 74 µM | 66.9 µM | > 100 µM | > 100 µM
3 | Fc1ccc(Nc2cc(-n3nnc4ccccc43)nc3ccccc23)cc1 | 23.5 µM | > 77.8 µM | > 100 µM | > 100 µM | 36.4 µM | > 69.2 µM | > 56.2 µM | > 100 µM | > 40.1 µM | > 66.3 µM | 18.2 µM | > 68.7 µM | > 47.9 µM | > 89 µM | 8.41 µM | – | > 100 µM | 70.1 µM | > 100 µM | > 100 µM
4 | NC(=O)C(=CNc1nc(-c2ccc(Cl)c(Cl)c2)cs1)C(N)=O | > 100 µM | > 100 µM | 38.7 µM | > 100 µM | > 100 µM | > 100 µM | > 100 µM | > 100 µM | 71.7 µM | > 100 µM | 26.9 µM | > 100 µM | > 100 µM | > 100 µM | > 100 µM | > 100 µM | > 100 µM | > 100 µM | > 100 µM | > 100 µM
5 | O=C(Nc1cccc(Cl)c1)c1cc2ccccc2cc1O | 5.58 µM and 5.82 µM | > 100 µM | 3.9 µM and 3.79 µM | > 100 µM | 1.55 µM and 0.657 µM | > 100 µM | 2.69 µM and 0.554 µM | > 100 µM | 2.58 µM and 2.57 µM | > 100 µM | 2.12 µM and 3.42 µM | – | 2.42 µM and 1.84 µM | 7.66 µM and 9.29 µM | 1.23 µM | 1.88 µM and 1.73 µM | 8.92 µM and 6.82 µM | 1.03 µM and 2.26 µM | 7.31 µM and 6.11 µM | 4.95 µM
6 | CC(C)c1ccccc1S(=O)c1ccccc1C(C)(C)O (configuration not stated) | – | > 100 µM | – | > 100 µM | – | > 100 µM | – | > 100 µM | – | > 100 µM | – | > 100 µM | – | > 100 µM | – | – | > 100 µM | – | > 100 µM | > 100 µM
7 | Cc1c(C2Nc3ccccc3C2C)[nH]c2ccccc12 (configuration not stated) | 17.4 µM | 34.2 µM | 0.738 µM | 26.3 µM | 6.24 µM | 21.3 µM | 12 µM | 26.2 µM | 12.8 µM | 45.6 µM | 16.1 µM | 49.7 µM | 13.8 µM | 34.5 µM | 13.1 µM | 6.16 µM | 24 µM | 12.4 µM | 28.3 µM | 29.9 µM
8 | CCN(CC)CCNCC(=O)Oc1ccc(/C=C/C(=O)CC(=O)/C=C/c2ccc(OC(=O)CNCCN(CC)CC)c(OC)c2)cc1OC | 6.72 µM | 23.5 µM | 3.14 µM | > 100 µM | 2.73 µM | 7.8 µM | 4.16 µM | 46.2 µM | 3.68 µM | > 100 µM | 3.59 µM | 26.4 µM | 2.29 µM | 5.95 µM | 3.71 µM | 6.1 µM | 31.6 µM | 3.58 µM | 16.9 µM | 12.6 µM
9 | COc1cc(NC(C)CCCN)c2nccc(C)c2c1OC (configuration not stated) | 19.8 µM | 45.8 µM | 20.8 µM | 60.7 µM | 16.6 µM | 32.1 µM | 14.6 µM | 29.6 µM | 17.9 µM | 48.3 µM | 8.5 µM | 35.4 µM | 16 µM | 30.2 µM | 18.6 µM | 4.04 µM | 24.1 µM | 13.7 µM | 29.4 µM | 57.1 µM
10 | COc1cc2cn3c4ccc(O)cc4[nH]c(=O)c3c2cc1OC | 0.0453 µM | 1.97 µM | 0.0173 µM | 1.79 µM | < 0.01 µM | 2.33 µM | < 0.01 µM | 0.681 µM | < 0.01 µM | 1.55 µM | 0.0702 µM | > 100 µM | 0.435 µM | 2.26 µM | 0.0367 µM | 0.0199 µM | 2.05 µM | < 0.0212 µM | 0.419 µM | 1.95 µM
11 | O=C(O)c1cccc(OCCO)c1 | – | > 100 µM | – | > 100 µM | – | > 100 µM | – | > 100 µM | – | > 100 µM | – | > 100 µM | – | > 100 µM | – | – | > 100 µM | – | > 100 µM | > 100 µM
12 | CC(=O)O[C@@H]1C[C@]2(C(C)C)O[C@@]1(C)[C@@H]1CCC(C)=C1[C@@H]2OC(=O)/C=C/c1ccccc1 | 93.2 µM | > 100 µM | 31.8 µM | > 100 µM | 26.5 µM | > 100 µM | 69.9 µM | > 100 µM | 35.1 µM | > 100 µM | 4.79 µM | > 100 µM | 51.3 µM | > 100 µM | 71.3 µM | 19.7 µM | > 100 µM | 27.8 µM | > 100 µM | > 100 µM
13 | O=C(Nc1cccc(Cl)c1Cl)c1cccc(NC2=C(Cl)C(=O)N(Cc3ccccc3)C2=O)c1 | > 100 µM | > 100 µM | 4.16 µM | 23.5 µM | 22.2 µM | > 100 µM | > 100 µM | > 100 µM | 27.7 µM | > 100 µM | 28.7 µM | > 100 µM | 15.7 µM | 84.5 µM | > 100 µM | > 100 µM | > 100 µM | 23.3 µM | 72.3 µM | > 100 µM
14 | N#CC(C(=O)/C(=N/Nc1nc(=S)[nH]n1N)C(C#N)c1ccccc1)c1ccccc1 (configuration not stated) | – | > 100 µM | – | > 100 µM | – | > 100 µM | – | > 100 µM | – | > 100 µM | – | > 100 µM | – | > 100 µM | – | – | > 100 µM | – | > 100 µM | > 100 µM
15 | CCCS(=O)(=O)Nc1ccc(Nc2c3ccccc3nc3ccccc23)c(OC)c1 | – | 15.6 µM | – | 0.85 µM | – | 13.1 µM | – | 1.3 µM | – | 8.31 µM | – | 16.7 µM | – | 9.99 µM | – | – | 20.5 µM | – | 19.8 µM | 16.4 µM
16 | Cc1cc(NC(=O)c2ccc(C)c(Nc3nccc(-c4cccnc4)n3)c2)cc(-n2cnc(C)c2)c1 | 0.0882 µM | 2.2 µM | 2.46 µM | 11.8 µM | 2.92 µM | 11 µM | 1.71 µM | 6.19 µM | 5.46 µM | 13.4 µM | 0.0847 µM | 14.4 µM | 0.159 µM | 9.98 µM | 1.73 µM | 1.34 µM | 3.77 µM | 1.53 µM | 5.92 µM | 4.93 µM
17 | O=C(O)c1ccccc1-c1ccccc1C(=O)Nc1ccc2c(c1)Cc1cc(F)ccc1-2 | – | 90.9 µM | – | 48.9 µM | – | 36.8 µM | – | > 100 µM | – | > 100 µM | – | > 100 µM | – | 40.2 µM | – | – | > 100 µM | – | 52.2 µM | > 100 µM
18 | COC(=O)[C@@H](NC(=O)[C@@H](OC)[C@@H]1Cc2cc3cc(OC4CC(OC5CC(O)C(O)C(C)O5)C(O)C(C)O4)c(C)c(O)c3c(O)c2C(=O)[C@H]1OC1CC(OC2CC(OC3CC(C)(O)C(O)C(C)O3)C(O)C(C)O2)C(O)C(C)O1)C(C)C (some centres not stated) | 0.208 µM | > 32.5 µM | 0.0174 µM | 5.08 µM | 0.0731 µM | 0.409 µM | 0.0971 µM | 6.04 µM | 0.172 µM | > 32.5 µM | 0.114 µM | 1.39 µM | 0.184 µM | 2.63 µM | 0.271 µM | 0.202 µM | > 32.5 µM | 0.128 µM | 8.91 µM | > 32.5 µM
